Values quoted from earlier work, collected in article PMC4559881 (Molecular Neurodegeneration, 2015).
Read-outs that look alike come from different tables or passages of the source.

Key:
deposited Aβ = test system: deposited Aβ; set-up: method as in PMID 25164658; settings: APP London mice, 4 months of dosing, 30 mg/kg; cited from earlier work
[1] = cited from earlier work
CSF Aβ [2] = test system: CSF Aβ; set-up: method as in PMID 22090477; settings: dogs, oral dose of 5 mg/kg; cited from earlier work
CSF Aβ [3] = test system: CSF Aβ; set-up: method as in PMID 22090477; settings: healthy volunteers, cited from earlier work
brain Aβ = test system: brain Aβ; set-up: method as in PMID 22090477; settings: PDAPP mice, doses ≥ 30 mg/kg p.o.; cited from earlier work
[4] = human, in vivo; cited from earlier work

## C[C@]1(c2cc(NC(=O)c3ccc(C#N)cn3)ccc2F)N=C(N)OCC1(F)F [RO5508887]
Deposited Aβ
  reduction of total deposited Aβ40: 28%
  reduction of total deposited Aβ42: 45%

## CC1(C#Cc2cnc3c(c2)[C@]2(COC(N)=N2)c2cc(-c4cccnc4F)ccc2O3)COC1 [AMG-8718]
[1]; high doses
  toxicity finding in rats: retinal toxicity

## C[C@@]1(c2cc(-c3cncnc3)c(F)cc2F)CCSC(N)=N1 [LY2811376]
CSF Aβ [2]
  reduction of CSF Aβ: approximately 70%
CSF Aβ [3]; oral dose 30 mg
  change of CSF Aβ: -20%
CSF Aβ [3]; oral dose 90 mg
  change of CSF Aβ: -54%
Brain Aβ
  reduction of brain Aβ: > 60%
[1]
  toxicity finding in rats: neuronal lipofuscinosis and degeneration

## NC1=N[C@@]2(c3cc(NC(=O)c4ccc(F)cn4)ccc3F)COC[C@H]2CS1 [LY2886721]
[4]
  liver finding in AD patients: elevation of liver enzymes
